The subject of experiment [1] is PMA-stimulated human neutrophils. Kind of experiment: HOCl generation by PMA-stimulated neutrophils, oxidation of APF. To be noted: PMA 160 nM, mean ± SEM. It is filed as cell-based. The protocol: APF is a non-fluorescent derivative of fluorescein, which is oxidized by HOCl, ONOO^−, and HO^• [87], in a concentration-dependent manner. Its selectivity was tested using the myeloperoxidase (MPO) inhibitor, 4-aminobenzoic acid hydrazide (ABAH). The addition of ABAH to human neutrophils, stimulated with PMA, decreased the APF-dependent fluorescence signal to the level of the control assay, ruling out the involvement of HO^• and ONOO^− [88]. The previously established methodology for monitoring oxidative burst modulation was adapted. In a 96-well plate, neutrophils (2 × 10^6 cells/mL) were incubated in the dark at 37 °C for 5 min with APF (2 μM) and the tested compounds (10–100 μM) or DMSO (4%). Quercetin (0.3–5.0 μM) and DPI (0.01–10 μM) were used as controls. After incubation, PMA (160 nM) was added, and the fluorescence (excitation at 495 nm and emission at 528 nm) was measured in a microplate reader (Synergy HT, BIO-TEK Instruments, Inc., Winooski, VT, USA). Kinetic readings were initiated immediately after the addition of APF. Obtained values correspond to the slope measured between 5 and 15 min. Effects are expressed as the percentage inhibition of APF oxidation. The results obtained represent at least three independent experiments.
APF is a non-ﬂuorescent derivative of ﬂuorescein, which is oxidized by HOCl, [20] ONOO-, and HO• [21] in a concentration- dependent manner. Its selectivity was tested using the myeloperoxidase (MPO) inhibitor, 4-aminobenzoic acid hydrazide (ABAH). The addition of ABAH to human neutrophils, stimulated with PMA, decreased the APF-dependent ﬂuorescence signal to the level of the control assay, ruling out the involvement of HO• and ONOO− [22]. The previously established methodology for monitoring oxidative burst modulation was adapted. In a 96-well plate, neutrophils (2 x 10^6 cells/mL) were incubated in the dark at 37 °C for 5 minutes with APF (2 µM) and the tested compounds (10 - 100 µM) or DMSO (4%). Quercetin (0.3 - 5.0 µM) and DPI (0.01 - 10 µM) were used as positive and negative controls, respectively. After incubation, PMA (160 nM) was added, and the ﬂuorescence (excitation at 495 nm and emission at 528 nm) was measured in a microplate reader (Synergy HT, BIO-TEK Instruments, Inc., Winooski, VT, USA). Kinetic readings were initiated immediately after the addition of APF. Obtained values correspond to the slope measured between 5 and 15 minutes. Eﬀects are expressed as the percentage inhibition of APF oxidation. The obtained results represent at least three independent experiments. […]
GraphPad Prism 6 software was used to plot the inhibition percentage versus compound concentration curves, enabling the determination of the concentration required to achieve 50% inhibition (IC50). GraphPad Prism 6 software was also used to perform all statistical analyses.
[…] was estimated by applying the one-way analysis (ANOVA), followed by the Bonferroni’s multiple comparisons test. In all cases, p-values < 0.05 were considered statistically signiﬁcant. The results are expressed as mean ± standard error of the mean (SEM).

Experiment [2] has the same test system. Kind of experiment: PMA-induced neutrophils' oxidative burst, oxidation of luminol (chemiluminescence). It is filed as cell-based. The protocol:
Luminol is easily oxidized by reactive species produced during neutrophils’ oxidative burst, resulting in a chemiluminescent signal. The effect of the compounds under study on the modulation of neutrophil oxidative burst was determined after stimulation with PMA, a known neutrophil activator, because its effect is closely analogous to that obtained during the phagocytic process. Following a previously reported method, in a 96-well plate, neutrophils were incubated in the dark at 37 °C for 5 min with luminol (500 μM) and the tested compounds (10–100 μM) or DMSO (final concentration 4%). Quercetin, a flavonoid known for its anti-inflammatory activity (0.3–5.0 μM), and the inhibitor of NADPH oxidase, DPI (0.01–10 μM), were used as controls. After incubation, PMA (160 nM) was added, and the chemiluminescence was measured in a microplate reader (Synergy HT, BIO-TEK Instruments, Inc., Winooski, VT, USA). Kinetic readings were initiated immediately after cell stimulation. Measurements were taken at the peak of the curve. […] Effects are expressed as the inhibition percentage of luminol oxidation. The results obtained represent at least three independent experiments. […]
3.4 Evaluation of neutrophils' oxidative burst
3.4.1 Oxidation of luminol
Luminol is easily oxidized by reactive species produced during neutrophils’ oxidative burst, resulting in a chemiluminescent signal. The eﬀect of the compounds under study on the modulation of neutrophil oxidative burst was determined after stimulation with PMA, a known neutrophil activator, because its eﬀect is closely analogous to that obtained during the phagocytic process. Following a previously reported method, in a 96-well plate, neutrophils were incubated in the dark at 37 °C for 5 minutes with luminol (500 µM) and the tested compounds (10 - 100 µM) or DMSO (ﬁnal concentration 4%). Quercetin, a ﬂavonoid known for its anti-inﬂammatory activity (0.3 - 5.0 µM), and the inhibitor of NADPH oxidase, DPI (0.01 - 10 µM), were used as positive and negative controls, respectively. After incubation, PMA (160 nM) was added, and the chemiluminescence was measured in a microplate reader (Synergy HT, BIO-TEK Instruments, Inc., Winooski, VT, USA). Kinetic readings were initiated immediately after cell stimulation. Measurements were taken at the […]
peak of the curve. […] Eﬀects are expressed as the inhibition percentage of luminol oxidation. The obtained results represent at least three independent experiments.

As a reminder, the IC50 is the concentration needed to halve the response being measured. In the case of “3-Hydroxy-2-(galactopyranosyl)propyl dodecanoate [Compound 1e]”, the “APF: highest obtained % of inhibition” value in experiment [1] (at 50 µM) is given as less than 20% ^50µM. The IC50 in experiment [2] (PMA 160 nM, mean ± SEM) stood at 83 ± 7 µM.

In the case of “3-Hydroxy-2-galactopyranosylpropyl dioctyl phosphate [Compound 1b]”, the “APF: highest obtained % of inhibition” value in experiment [1] (at 25 µM) is 29 ± 10% ^25µM. For the same molecule, the “Luminol: highest obtained % of inhibition” value in experiment [2] (at 25 µM, PMA 160 nM, mean ± SEM) is given as 36 ± 9% ^25µM.

Broadly, the inhibition is the change of the read-out against control, counted positive when it falls. Take `OCC(CO)OC1OC(CO)C(O)C(O)C1O` [Compound 1a, 2-O-D-(galactopyranosyl)glycerol]: the inhibition at 50 µM in experiment [1] (Homo sapiens, Neutrophil, at 50 µM, read-out: APF: highest obtained % of inhibition) stood at 27 ± 6%. For the same molecule, in experiment [2] (Homo sapiens, Neutrophil, at 100 µM, PMA 160 nM, mean ± SEM, read-out: Luminol: highest obtained % of inhibition), the inhibition at 100 µM was found to be 34 ± 7%. The “Effect on oxidative burst measured by luminol (in words)” value in experiment [2] (PMA-induced) was “no relevant activity”.

Consider `CCCCCCCCCCCC(=O)OCC(CO)OC1OC(COP(=O)(OCCN)OCCN)C(O)C(O)C1O` (stereo not drawn) [Compound 1h, 2-(6-(bis(2-Aminoethoxy))phosphoryl)galactopyranosyl-3-hydroxypropyl dodecanoate], for which the inhibition at 25 µM in experiment [1] (Homo sapiens, Neutrophil, at 25 µM, read-out: APF: highest obtained % of inhibition) was less than 20%; in experiment [2] (Homo sapiens, Neutrophil, at 25 µM, PMA 160 nM, mean ± SEM, read-out: Luminol: highest obtained % of inhibition), 27 ± 15%.

(Values after paper PMC12251482, “Floridoside Phosphotriester Derivatives: Synthesis and Inhibition of Human Neutrophils’ Oxidative Burst” (Molecules, 2025).)
